Results from patent publication US11034695B2, “Dopamine-β-hydroxylase inhibitors” (BIAL—PORTELA & Ca, S.A., priority 2016, dated 2021).

Biological target: T1, Dopamine beta hydroxylase activity in human plasma (Homo sapiens, UniProt P09172)
T1 construct: 125 μl of plasma (or saline for blank reaction or standard curve); tissue Instituto Português do Sangue Transplantação; host or cells: human plasma from healthy donors
T1 sequence (P09172 40-617 limits assumed): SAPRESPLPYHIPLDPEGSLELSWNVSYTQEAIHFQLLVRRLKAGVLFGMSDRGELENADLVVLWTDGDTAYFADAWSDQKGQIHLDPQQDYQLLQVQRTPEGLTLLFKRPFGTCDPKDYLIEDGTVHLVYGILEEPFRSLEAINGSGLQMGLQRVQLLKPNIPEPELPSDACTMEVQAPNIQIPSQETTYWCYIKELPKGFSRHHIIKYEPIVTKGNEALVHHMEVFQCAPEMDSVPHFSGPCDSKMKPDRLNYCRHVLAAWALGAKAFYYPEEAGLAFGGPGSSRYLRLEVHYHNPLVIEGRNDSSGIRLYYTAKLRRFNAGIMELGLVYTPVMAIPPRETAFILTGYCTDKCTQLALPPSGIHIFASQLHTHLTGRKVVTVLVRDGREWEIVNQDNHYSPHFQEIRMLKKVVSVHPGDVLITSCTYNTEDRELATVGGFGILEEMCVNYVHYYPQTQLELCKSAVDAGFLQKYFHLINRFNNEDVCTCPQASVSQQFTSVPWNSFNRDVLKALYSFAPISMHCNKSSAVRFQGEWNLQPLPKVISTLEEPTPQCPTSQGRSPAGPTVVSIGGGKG
Test: DβH activity in human plasma
Type: biochemical
Settings: 0.1 μM inhibitor; human plasma; numbers in brackets; read-out: DβH activity in % of Ctrl (0.1 μM), human plasma assay
Protocol: Furthermore, the ability of a compound to inhibit DβH activity may be assessed in human plasma using the following assay. […]. Dopamine beta hydroxylase activity in human plasma was measured by the method previously developed (Nagatsu, T. and Udenfriend, S. Photometric assay of dopamine-β-hydroxylase activity in human blood. Clin. Chem. 18(9) 980-983, 1972) with minor modifications. Catalase, N-ethylmaleimide, tyramine, disodium fumarate, pargyline, sodium acetate, ascorbic acid, copper sulfate and octopamine were obtained from Sigma Chemical Co., St. Louis, Mo. 63178. Human plasma samples were obtained from healthy donors (Instituto Português do Sangue Transplantação, Centro Sangue Transplantação, Porto, Portugal). From date of collection, plasma was stored at −80° C. until use. Test compounds were initially prepared in dimethyl sulfoxide at a concentration of 10 mM and diluted in dimethyl sulfoxide to the required concentrations. Test compounds were further diluted in ultrapure water to a concentration 20-fold to that of the final concentration to be tested. Final concentrations of test compounds were 10, 100 and 1000 nM. The various reagents used to make up the incubation buffer were premixed and consisted of the following components: sodium acetate buffer (1 M, pH 5.0, 18 ml), sodium fumarate (0.2 M, 4.5 ml), ascorbic acid (0.2 M, 4.5 ml, freshly prepared), pargyline (20 mM, freshly prepared, 4.5 ml), N-ethylmaleimide (0.2 M, 4.5 ml), catalase (10 000 U/ml, 9 ml), copper sulfate (20 μM, 4.5 ml) and 4.5 ultrapure water. The standard incubation mixture (total volume, 950 μl) contained: 50 μL of compound or vehicle (dimethyl sulfoxide 2%); 700 μL of incubation buffer; 125 μl of plasma (or saline for blank reaction or standard curve); 75 μl of saline. The reaction mixture was placed in water bath, shaking at 37° C. and pre-incubated for 10 minutes. Tyramine (0.5 M) was added and incubation proceeded for 45 minutes. The reaction contents were exposed to air. A sample of enzyme preparation (with 125 μl of plasma) that had been added perchloric acid 2 M at the end of the pre-incubation period was used as blank. A blank for each of the tested compounds was used. For octopamine standard curve, perchloric acid 2 M was replaced by increasing concentrations of octopamine prepared in perchloric acid 2 M (0.5, 1, 2.5, 5, 7.5, 10, 15, 20 μg/ml, final concentration). The incubation was stopped by adding 200 μl of 2 M molar perchloric acid, and the mixture was centrifuged at 9000 g for 5 min. The supernatant fluid (800 μL) was transferred to a column (SPE cartridge ISOLUTE SCX-3, 100 mg) and centrifuged at 150 g for 2 min. The column was washed two more times with 0.5 ml of ultrapure water by centrifuging at 150 g for 2 min. The adsorbed octopamine was eluted twice with 0.3 ml of 4 M ammonium hydroxide by centrifuging at 150 g for 2 min. Octopamine in the eluate was then converted to p-hydroxybenzaldehyde by adding 200 μl of sodium periodate (2%) and incubating for 6 min. Excess periodate was than reduced by adding 200 μl of sodium metabisulfite (10%). Absorbance was measured at […] in a 96-well plate by use of a SpectraMAX plus 384 (Molecular Devices) with software SOFTmax® PRO Software 5.3 spectrophotometer. Absorbance was linear with octopamine concentration from 0.5 to 20 μg/ml. Dopamine beta hydroxylase activity is determined as nmol of octopamine formed/ml of plasma/hour and effect of compounds is presented as % control.
Results are reported in the table below (inside brackets) as activity in % of control at the inhibitor concentration tested.

Compound	remaining activity at 0.1 µM [%]
Cc1[nH]c(=S)n2c1C[C@H](c1c(F)c(F)cc(F)c1F)C2 [Example 5, (R)-1-methyl-6-(2,3,5,6-tetrafluorophenyl)-2,5,6,7-tetrahydro-3H-pyrrolo[1,2-c]-imidazole-3-thione]	57.3
Cc1[nH]c(=S)n2c1C[C@@H](c1c(F)c(F)cc(F)c1F)C2 [Example 6, (S)-1-methyl-6-(2,3,5,6-tetrafluorophenyl)-2,5,6,7-tetrahydro-3H-pyrrolo[1,2-c]imidazole-3-thione]	74.1
Cc1[nH]c(=S)n2c1C[C@H](c1c(F)ccc(Br)c1F)C2 [Example 15, (R)-6-(3-bromo-2,6-difluorophenyl)-1-methyl-2,5,6,7-tetrahydro-3H-pyrrolo[1,2-c]imidazole-3-thione]	23.8
Cc1[nH]c(=S)n2c1C[C@@H](c1c(F)ccc(Br)c1F)C2 [Example 16, (S)-6-(3-bromo-2,6-difluorophenyl)-1-methyl-2,5,6,7-tetrahydro-3H-pyrrolo[1,2-c]imidazole-3-thione]	12.1
Cc1[nH]c(=S)n2c1C[C@@H](c1cc(Br)ccc1F)C2 [Example 19, (S)-6-(5-bromo-2-fluorophenyl)-1-methyl-2,5,6,7-tetrahydro-3H-pyrrolo[1,2-c]imidazole-3-thione]	39.1
Cc1[nH]c(=S)n2c1C[C@H](c1c(F)ccc(F)c1F)C2 [Example 20, (R)-1-methyl-6-(2,3,6-trifluorophenyl)-6,7-dihydro-2H-pyrrolo[1,2-c]imidazole-3(5H)-thione]	27.7
Cc1[nH]c(=S)n2c1C[C@H](c1c(F)cccc1F)C2 [Example 22, (R)-6-(2,6-difluorophenyl)-1-methyl-2,5,6,7-tetrahydro-3H-pyrrolo[1,2-c]imidazole-3-thione]	0.5

Continued, values first:

remaining activity at 0.1 µM [%]	Compound
38.3	Cc1[nH]c(=S)n2c1[C@@H]1C[C@]1(c1cc(Cl)ccc1F)C2 [Example 8, (5aS,6aR)-5a-(5-chloro-2-fluorophenyl)-1-methyl-5,5a,6,6a-tetrahydrocyclopropa[3,4]pyrrolo[1,2-c]imidazole-3(2H)-thione]
4.7	Cc1[nH]c(=S)n2c1[C@@H]1C[C@]1(c1c(F)ccc(Cl)c1F)C2 [Example 14, (5aS,6aR)-5a-(3-chloro-2,6-difluorophenyl)-1-methyl-5,5a,6,6a-tetrahydrocyclopropa[3,4]pyrrolo[1,2-c]imidazole-3(2H)-thione]
49.9	Cc1[nH]c(=S)n2c1[C@@H]1C[C@]1(c1cc(F)cc(Cl)c1)C2 [Example 17, (5aS,6aR)-5a-(3-chloro-5-fluorophenyl)-1-methyl-5,5a,6,6a-tetrahydrocyclopropa[3,4]pyrrolo[1,2-c]imidazole-3(2H)-thione]
10	[2H]C([2H])([2H])c1[nH]c(=S)n2c1[C@@H]1C[C@]1(c1cc(Br)ccc1F)C2 [Example 18, (5aS,6aR)-5a-(5-bromo-2-fluorophenyl)-1-(methyl-d3)-5,5a,6,6a-tetrahydrocyclopropa[3,4]pyrrolo[1,2-c]imidazole-3(2H)-thione]
88.8	Cc1[nH]c(=S)n2c1C[C@H](c1cc(Br)ccc1F)C2 [Example 21, (R)-6-(5-bromo-2-fluorophenyl)-1-methyl-2,5,6,7-tetrahydro-3H-pyrrolo[1,2-c]imidazole-3-thione]
67	Cc1[nH]c(=S)n2c1C[C@@H](c1cc(Cl)ccc1F)C2 [Example 23, (S)-6-(5-chloro-2-fluorophenyl)-1-methyl-2,5,6,7-tetrahydro-3H-pyrrolo[1,2-c]imidazole-3-thione]

Same assay, conditions: read-out: DβH activity in % of Ctrl (0.1 μM), human plasma assay

Compound	remaining activity at 0.1 µM [%]
Cc1[nH]c(=S)n2c1[C@@H]1C[C@]1(c1cc(Br)ccc1F)C2 [Example 13, (5aS,6aR)-5a-(5-bromo-2-fluorophenyl)-1-methyl-5,5a,6,6a-tetrahydrocyclopropa[3,4]pyrrolo[1,2-c]imidazole-3(2H)-thione]	9.8
